# Test results from US10308617B2, “Triazole benzamide derivatives and the compositions and methods of treatment regarding the same” (An2H Discovery Limited, priority 2016, dated 2019).
# Columns and labels:
# [1] = Microsomal Stability Assay, human liver microsomes; assay type: in vitro ADME; conditions: pH 7.4, 1 μM compound, 1.0 mg/mL microsome, NADPH, read-out: HLM t1/2
# Protocol: Compounds were also tested for metabolic stability in both rat liver microsomes (RLM) and human liver microsomes (HLM) and their half-life calculated (See Table 5). The assay was performed as follows. The total volume for each incubation was 250 μL. A 100 μM DMSO solution of compound (diluted from 10 mM stock solution) was spiked into 50 mM KH2PO4 (pH 7.4) buffer containing liver microsome at a concentration of 1.0 mg/mL. The reaction was initiated by the addition of 50 μL of 1 mM NADPH. The final concentration of each compound was 1 μM (1% DMSO). The positive controls, phenacetin for CYP1A2, diclofenac for CYP2C9, omeprazole for CYP2C19, dextromethorphan for CYP2D6 and midazolam for CYP3A4 were added to a separate tube with the final substrate concentrations of 1 μM (1% DMSO) for evaluating the enzyme activities in the liver microsomes. At 0, 15, 30 and 60 min, an aliquot of 15 μL reaction mixtures were removed and 200 μL of methanol (with internal standard of 25 ng/mL propranolol) was added to quench the reaction. The resulting mixture was centrifuged and supernatant was used for LC-MS/MS analysis.
# The signals for each compound, or the metabolites for the probe substrates and the internal standard were integrated and the peak area ratios to internal standard were generated. Percent parent remaining at a specified timepoint was calculated based on the peak area ratios at time 0 (as 100%) for in vitro metabolic stability studies in liver microsome and hepatocyte. The observed rate constant (kobs) for the metabolism of substrates was calculated by plotting the natural log of percentage substrate remaining versus time of incubation with the slope being kobs. The half-life (T1/2) was calculated according to the following equation: T1/2=0.693/kobs
# [2] = system: subcutaneous Calu-6 (lung cancer) xenograft; assay: In Vivo Cancer Xenograft Assay, Calu-6; parameters: species or system nude mice; conditions: 5 or 10 mg/kg daily IP
# Protocol: (§1) Compound F was evaluated for in vivo therapeutic efficacy in the treatment of subcutaneous HCT-116 (colon cancer) and Calu-6 (lung cancer) xenograft models in nude mice.
# (§2) Each mouse was inoculated subcutaneously at the flank region with either HCT-116 or Calu-6 tumor cells ([…]) in 0.1 ml of 1×PBS mixed with Matrigel (1:1) for tumor development and xenotransplantation.
# (§3) Twenty (20) animals with approx […] tumors were selected for HCT-116 follow up experiment and randomly placed into Groups 1, 2, 3, and 4, wherein Group 1 was for mice administered with a vehicle negative control; Group 2 was positive control of Mice treated with Bevacizumab at 5 mg/kg every three days; Group 3 was mice treated with 5 mg/kg of Compound f daily for up to 20 days; and Group 4 was mice treated with 10 mg/kg of Compound F daily for up to 20 days. The vehicle with or without drug was administered to the mouse by intraperitoneal injection. […]
# (§4) After tumor cells inoculation, the animals were checked daily for morbidity and mortality. […] Death and observed clinical signs were recorded. Tumor volumes were measured every three days in two dimensions using an electronic caliper, and the volume data are expressed in mm^3 using the formula: V=0.5 a×b2 where a and b are the long and short diameters of the tumor, respectively. Tumor volume average was then recorded for each day for groups 1-4 until day 26. […]
# [3] = system: subcutaneous HCT-116 (colon cancer) xenograft; assay: In Vivo Cancer Xenograft Assay, HCT-116; parameters: species or system nude mice; conditions: 5 or 10 mg/kg daily IP, tumor volume to day 26
# Protocol: as §1, §2, §3, §4
half-life at 1 μM [1] [h],Structure (SMILES),delay of subcutaneous Calu-6 tumor growth [2],delay of subcutaneous HCT-116 tumor growth [3]
2.52,"O=C(Nc1nc(NC(=O)c2ccccc2)n(-c2ccccc2)n1)c1ccccc1 [Compound A, N,N′-(1-phenyl-1H-1,2,4-triazole-3,5-diyl)dibenzamide]",–,–
1.3,"O=C(/C=C/c1ccccc1)Nc1nc(NC(=O)c2ccccc2)nn1-c1ccccc1 [Compound C, N-(5-cinnamamido-1-phenyl-1H-1,2,4-triazol-3-yl)benzamide]",–,–
9.63,"Cc1ccccc1C(=O)Nc1nc(NC(=O)c2ccccc2C)n(-c2ccccc2)n1 [Compound F, 2-methyl-N-[5-[(2-methylbenzoyl)amino]-1-phenyl-1,2,4-triazol-3-yl]benzamide]",effective of delaying growth,effective of delaying growth
0.642,"O=C(Nc1nc(Nc2ncnc3ccccc23)n(-c2ccccc2)n1)c1ccccc1 [Compound L, N-[1-phenyl-5-(quinazolin-4-ylamino)-1,2,4-triazol-3-yl]benzamide]",–,–
0.115,O=C(/C=C/c1ccccc1)Nc1nc(NC(=O)c2ccccc2)nn1-c1ccccn1 [Compound U1],–,–
